Measured values taken from US20150118179A1, “BIOCIDAL COMPOUNDS AND METHODS FOR USING SAME” (UNIVERSITY OF MANITOBA, priority 2012, published 2015).

Columns and labels:
[1] = tested on: MRSA ATCC33592; test: Biocidal activity in bacterial suspension (Example 17); type: cell-based, Staphylococcus aureus; conditions: 15 ppm [Cl+]
Procedure: (§1) In the model study we investigated the bactericidal performance of small molecules 2 and 43 against three strains for each bacterium at the concentration of 15 ppm.
(§2) Tryptone Soya Agar (TSA) was used for bacterial culture. After sub-cultured from stocks, bacteria were allowed to grow at 37° C. for 18-20 hours to obtain logarithmic-phase cultures. Biocidal activity of 2 and 43 were completed as followed. To 20 mL bacterial suspension (10^6-10^7 colony forming units (CFU)/mL) in a centrifuge tube was added 30 μL it 2 or 43 solutions (0.28 M stock solution) respectively to achieve final 15 ppm [Cl^+]). Timing of the exposure to the disinfectant was started immediately with the addition of the synthetic compound 2 or 43. After the contact for 5 min, 10 min, and 20 min respectively, 1.0 mL aliquots were withdrawn and added to an equal volume of 0.02 N sodium thiosulfate in PBS (0.05 M, pH 7.0). The quenched suspension was serially diluted and 100 μL of each resulting dilutions were placed onto nutrient agar plates. The same procedure was also applied to compounds 1 and 42 as controls. After being incubated at 37° C. for 24 hours, viable bacterial colonies on the plates were counted. Bacterial reduction was reported according to the following equation.
(§3) Percentage reduction of bacteria (%)=(A−B)/A×100
(§4) Where A is the number of bacteria retrieved from controls (CFU/mL), and B is the number of bacteria retrieved from 2 or 43 (CFU/mL).

[2] = tested on: MRSA (#77090); test: as above; type: cell-based, Staphylococcus aureus; conditions: 15 ppm [Cl+]
Procedure: as §1, §2, §3, §4

[3] = tested on: MRSA (#70527); test: as above; type: cell-based, Staphylococcus aureus; conditions: 15 ppm [Cl+]
Procedure: as §1, §2, §3, §4

[4] = tested on: E. coli ATCC 25922; test: as above; type: cell-based, Escherichia coli; conditions: 15 ppm [Cl+]
Procedure: as §1, §2, §3, §4

[5] = tested on: MDR-E. coli (#70094); test: as above; type: cell-based, Escherichia coli; conditions: 15 ppm [Cl+]
Procedure: as §1, §2, §3, §4

[6] = tested on: MDR-E. coli (#95882); test: as above; type: cell-based, Escherichia coli; conditions: 15 ppm [Cl+]
Procedure: as §1, §2, §3, §4

[7] = tested on: P. aeruginosa 73104; test: Biocidal activity in bacterial suspension (Example 18); type: cell-based, Pseudomonas aeruginosa; conditions: 15 ppm [Cl+]
Procedure: Logarithmic-phase cultures of P. aeruginosa were prepared by initially suspending several colonies in cation-supplemented Mueller-Hinton broth (Oxoid, Nepean, Ontario, Canada) at a density equivalent to a 0.5 McFarland standard (1×10^8 cfu/mL). This suspension was then diluted 1:100 and 20 μL of the diluted suspension was further diluted in 60 mL of cation-supplemented Mueller-Hinton broth. Following overnight growth at 37° C., suspensions were diluted 1:[…] to get inoculums of approximately 1×10^6 or 1×10^5 cfu/mL.
(§5) Biocidal activity of synthetic compounds was completed as followed. To 20 mL of bacterial suspension (10^5 or 10^6 cfu/mL) in a centrifuge tube was added 30 μL solution of synthetic compounds (0.282 M stock solution) to achieve a final [Cl^+] of 15 ppm. Timing of the exposure to the disinfectant was started immediately with the addition of the synthetic compound. After predetermined contact time, 1.0 mL aliquots were withdrawn and added to an equal volume of 0.02 N sodium thiosulfate in PBS (0.1 M, pH 7.4). The quenched suspension was serially diluted and 100 μL of each resulting dilution was placed onto nutrient agar plates. After being incubated at 37° C. for 24 hours, the viable bacterial colonies on the plates were counted. Bacterial reduction was reported according to:
as §3
(§6) Log reduction=Log(A/B) (4)
(§7) where A is the number of bacteria in the starting inoculum (cfu/mL), and B is the number of bacteria retrieved from synthetic compounds (cfu/mL).

[8] = tested on: CA-MRSA 40065; test: as above; type: cell-based, Staphylococcus aureus; conditions: Table 2, 15 ppm [Cl+], inoculum 1.57-1.75 × 10^6 CFU/mL
Procedure: Logarithmic-phase cultures of MRSA were prepared using similar way except TSA broth was used instead.
as §5, §3, §6, §7

[9] = Table 3, contact 60 min, inoculum 2.26 × 10^5 CFU/mL
[10] = Table 3, contact 90 min, inoculum 2.26 × 10^5 CFU/mL
[11] = Table 4, contact 3 min, inoculum 2.26-2.98 × 10^5 CFU/mL
[12] = Table 4, contact 5 min, inoculum 2.26-2.98 × 10^5 CFU/mL
[13] = Table 4, contact 10 min, inoculum 2.26-2.98 × 10^5 CFU/mL
[14] = Table 4, contact 20 min, inoculum 2.26-2.98 × 10^5 CFU/mL
[15] = Table 4, contact 30 min, inoculum 2.26-2.98 × 10^5 CFU/mL
[16] = Table 4, contact 45 min, inoculum 2.26-2.98 × 10^5 CFU/mL
[17] = Table 4, contact 60 min, inoculum 2.26-2.98 × 10^5 CFU/mL

`CC1(C)C(=O)N(CCC[N+](C)(C)C)C(=O)N1Cl` [Compound 2] was tested, and the Bacteria reduction % ([1]; contact 5 min) was 100%, the “Bacteria reduction Log10” value ([1]; contact 5 min) was 6.60 Log10 and the Bacteria reduction % ([1]; contact 10 min) was 100%. For the same compound, the “Bacteria reduction Log10” value ([1]; contact 10 min) was 6.60 Log10, the Bacteria reduction % ([1]; contact 20 min) was 100% and the “Bacteria reduction Log10” value ([1]; contact 20 min) was 6.60 Log10. For the same compound, the Bacteria reduction % ([2]; contact 5 min) was 100%, the “Bacteria reduction Log10” value ([2]; contact 5 min) was 6.16 Log10 and the Bacteria reduction % ([2]; contact 10 min) was 100%. The “Bacteria reduction Log10” value ([2]; contact 10 min) was 6.16 Log10, the Bacteria reduction % ([2]; contact 20 min) was 100% and the “Bacteria reduction Log10” value ([2]; contact 20 min) was 6.16 Log10. The Bacteria reduction % ([3]; contact 5 min) was 100%, the “Bacteria reduction Log10” value ([3]; contact 5 min) was 6.76 Log10 and the Bacteria reduction % ([3]; contact 10 min) was 100%. The “Bacteria reduction Log10” value ([3]; contact 10 min) was 6.76 Log10, the Bacteria reduction % ([3]; contact 20 min) was 100% and the “Bacteria reduction Log10” value ([3]; contact 20 min) was 6.76 Log10. The “Bacteria reduction Log10” value ([4]; contact 5 min) was 6.63 Log10, the Bacteria reduction % ([4]; contact 5 min, inoculum 1.46-5.87 × 10^6 CFU/mL) was 100% and the Bacteria reduction % ([4]; contact 10 min) was 100%. The “Bacteria reduction Log10” value ([4]; contact 10 min) was 6.63 Log10, the Bacteria reduction % ([4]; contact 20 min) was 100% and the “Bacteria reduction Log10” value ([4]; contact 20 min) was 6.63 Log10. For the same compound, the Bacteria reduction % ([5]; contact 5 min) was 100%, the “Bacteria reduction Log10” value ([5]; contact 5 min) was 6.17 Log10 and the Bacteria reduction % ([5]; contact 10 min) was 100%. For the same compound, the “Bacteria reduction Log10” value ([5]; contact 10 min) was 6.17 Log10, the Bacteria reduction % ([5]; contact 20 min) was 100% and the “Bacteria reduction Log10” value ([5]; contact 20 min) was 6.17 Log10. For the same compound, the Bacteria reduction % ([6]; contact 5 min) was 100%, the “Bacteria reduction Log10” value ([6]; contact 5 min) was 6.67 Log10 and the Bacteria reduction % ([6]; contact 10 min) was 100%. The “Bacteria reduction Log10” value ([6]; contact 10 min) was 6.67 Log10, the Bacteria reduction % ([6]; contact 20 min) was 100% and the “Bacteria reduction Log10” value ([6]; contact 20 min) was 6.67 Log10. The “Reduction of P. aeruginosa” value ([7]; 10^6 cfu/mL P. aeruginosa, within 60 min of contact) was “cannot bring any significant reduction”, the Bacteria reduction % ([7]; Table 3, contact 3 min, inoculum 2.26 × 10^5 CFU/mL) was 37.6 ± 1.9% and the Bacteria reduction % ([7]; Table 3, contact 5 min, inoculum 2.26 × 10^5 CFU/mL) was 26.6 ± 12.5%. The “Bacteria reduction Log10” value ([7]; Table 3, contact 10 min, inoculum 2.26 × 10^5 CFU/mL) was 0.41 ± 0.02 Log10, the Bacteria reduction % [7, 9] was 100% and the “Bacteria reduction Log10” value [7, 9] was 5.35 Log10. For the same compound, the Bacteria reduction % [7, 10] was 100%, the “Bacteria reduction Log10” value [7, 10] was 5.35 Log10 and the Bacteria reduction % [7, 11] was 37.6%. For the same compound, the “Bacteria reduction Log” value [7, 11] was 0.2 Log, the Bacteria reduction % [7, 12] was 26.6% and the “Bacteria reduction Log” value [7, 12] was 0.14 Log. For the same compound, the Bacteria reduction % [7, 13] was 61.5%, the “Bacteria reduction Log” value [7, 13] was 0.41 Log and the Bacteria reduction % [7, 14] was 99.65%. For the same compound, the “Bacteria reduction Log” value [7, 14] was 2.46 Log, the Bacteria reduction % [7, 15] was 99.99% and the “Bacteria reduction Log” value [7, 15] was 4.02 Log. The Bacteria reduction % [7, 16] was 99.99%, the “Bacteria reduction Log” value [7, 16] was 4.67 Log and the Bacteria reduction % [7, 17] was 100%. The “Bacteria reduction Log” value [7, 17] was 5.47 Log, the Bacteria reduction % ([8]; contact 3 min) was 92.8% and the “Bacteria reduction Log10” value ([8]; contact 3 min) was 1.14 Log10. The Bacteria reduction % ([8]; contact 5 min) was 93.8%, the “Bacteria reduction Log10” value ([8]; contact 5 min) was 1.20 Log10 and the Bacteria reduction % ([8]; contact 10 min) was 90.3%. For the same compound, the “Bacteria reduction Log10” value ([8]; contact 10 min) was 1.01 Log10, the Bacteria reduction % ([8]; contact 60 min) was 99.6% and the “Bacteria reduction Log10” value ([8]; contact 60 min) was 2.36 Log10.
